Columns and labels:
human eIF4E protein = molecular target: T1, human eIF4E protein (Homo sapiens, UniProt P06730); assay: Biochemical competitive binding assay (TR-FRET competition, EDA-m7GDP-ATTO-647N probe); details: read-out: hEIF4E TR-FRET IC50
T1 construct: purchased Novus NBP-45314
Summary of the method: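 IC50 values come from 4-parameter fits of the normalized 665/620 nm TR-FRET ratio. Compound was first incubated 15 min with 4 nM recombinant His-eIF4E bound to 2.5 nM Eu-anti-His antibody, then 15 min with 5 nM m7GDP-ATTO-647N tracer, in pH 7.5 HEPES buffer with 100 mM KCl, Tween-20 and BSA.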

[1] = tested on: COLO 205 colorectal tumor cells; assay: Tumor cell viability inhibition assay (CellTiter-Glo 2.0, 72 hours); type: cell-based; details: COLO 205 cell viability
Summary of the method: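 IC50 derived by 4-parameter fitting after normalizing luminescence to DMSO and max-inhibition wells. Compounds tested as 11 concentrations in 4-fold steps on COLO 205 cells seeded at 1500 per well in RPMI-1640/10% FBS; ATP content measured with CellTiter-Glo 2.0 after 72 h.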

T1 sequence (P06730 whole entry): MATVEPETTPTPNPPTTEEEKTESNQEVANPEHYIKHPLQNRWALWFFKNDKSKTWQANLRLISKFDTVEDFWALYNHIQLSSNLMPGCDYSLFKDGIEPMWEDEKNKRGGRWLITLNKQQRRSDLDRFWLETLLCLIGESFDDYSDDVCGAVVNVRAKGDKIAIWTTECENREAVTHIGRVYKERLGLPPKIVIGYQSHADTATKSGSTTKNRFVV

Row | IC50 (human eIF4E protein) | IC50 ([1]; Homo sapiens, COLO 205, 72 h) | IC50 [1] | Compound
1 | < 0.1 µM | < 5 µM | – | Cc1cc(-c2cc(Cl)ccc2OCCn2c(C)nc3c(c2=O)C[C@H](N2CCC(OC(F)(F)F)CC2)[C@@H]2C[C@H]32)c2scc(C(=O)O)c2n1 (single isomer, unassigned) [Compound 597]
2 | < 0.1 µM | < 5 µM | – | Cc1cc(-c2cc(Cl)ccc2OCCn2c(C)nc3c(c2=O)C[C@@H](N2CCC(c4ncn(C)n4)CC2)CC3)c2scc(C(=O)O)c2n1 (single isomer, unassigned) [Compound 463]
3 | < 0.1 µM | < 5 µM | – | Cc1cc(-c2cc(Cl)ccc2OCCn2c(C)nc3c(c2=O)CC(C)(N2CCC(OC(F)(F)F)CC2)CC3)c2scc(C(=O)O)c2n1 (centres unmarked) [Compound 536]
4 | < 0.1 µM | < 5 µM | – | CO[C@H]1CCN([C@H]2CCc3nc(C)n(CCOc4ccc(Cl)cc4-c4cc(C)nc5c(C(=O)O)csc45)c(=O)c3C2)CC12CC2 (single isomer, unassigned) [Compound 522]
5 | < 0.1 µM | < 5 µM | – | [2H]C1(N2CCC(OC(F)(F)F)CC2)CCc2nc(C)n(CCOc3ccc(Cl)cc3-c3cc(C)nc4c(C(=O)O)csc34)c(=O)c2C1 (single isomer, unassigned) [Compound 362]
6 | < 0.1 µM | < 5 µM | – | Cc1cc(-c2cc(Cl)ccc2OCCn2c(C)nc3c(c2=O)C[C@@H](N2CCC(c4cc(F)ccc4C(F)(F)F)CC2)CC3)c2scc(C(=O)O)c2n1 (single isomer, unassigned) [Compound 586]
7 | < 0.1 µM | 5 to 20 µM | – | COC1CCN([C@H]2CCc3nc(C)n(CCOc4ccc(Cl)cc4-c4cc(C)nc5c(C(=O)O)csc45)c(=O)c3[C@H]2C)CC1 (stereo in doubt) [Compound 102, 7-(5-chloro-2-(2-(6-(4-methoxypiperidin-1-yl)-2,5-dimethyl-4-oxo-5,6,7,8-tetrahydroquinazolin-3(4H)-yl)ethoxy)phenyl)-5-methylthieno[3,2-b]pyridine-3-carboxylic acid]
8 | < 0.1 µM | < 5 µM | – | Cc1cc(-c2cc(Cl)ccc2OCCn2c(C)nc3c(c2=O)C[C@@H](N2C[C@@H]4CC(F)(F)C[C@@H]4C2)CC3)c2scc(C(=O)NS(C)(=O)=O)c2n1 (relative stereo) [Compound 369]
9 | < 0.1 µM | 5 to 20 µM | – | Cc1cc(-c2cc(Cl)ccc2OCCn2c(C)nc3c(c2=O)CC(N2CCC(OC(F)(F)F)CC2)CC3)c2scc(C(=O)NS(=O)(=O)C(F)(F)F)c2n1 (single isomer, unassigned) [Compound 459]
10 | < 0.1 µM | < 5 µM | – | Cc1cc(-c2cc(Cl)ccc2OCCn2c(C)nc3c(c2=O)C[C@H](N2CCC(CC(F)(F)F)CC2)CC3)c2scc(C(=O)O)c2n1 (single isomer, unassigned) [Compound 107]
11 | < 0.1 µM | > 20 µM | – | Cc1cc(-c2cc(Cl)ccc2OCCn2c(C)nc3c(c2=O)C[C@@H](N2CCC[C@@H](c4ccn(C)n4)C2)CC3)c2scc(C(=O)O)c2n1 (single isomer, unassigned) [Compound 446]
12 | < 0.1 µM | < 5 µM | – | Cc1cc(-c2cc(Cl)ccc2OCCn2c(C)nc3c(c2=O)C[C@@H](N2CCC(c4ccc(F)cc4F)CC2)CC3)c2scc(C(=O)O)c2n1 (single isomer, unassigned) [Compound 419]
13 | < 0.1 µM | < 5 µM | – | Cc1cc(-c2cc(Cl)ccc2OCCn2c(C)nc3c(c2=O)C[C@@H](N2CCCC(F)(F)CC2)CC3)c2scc(C(=O)O)c2n1 (single isomer, unassigned) [Compound 402]
14 | < 0.1 µM | < 5 µM | – | Cc1cc(-c2cc(Cl)ccc2OCCn2c(C)nc3c(c2=O)CC(N2CCC4(CCN(CC(F)(F)F)C4)C2)CC3)c2scc(C(=O)O)c2n1 (single isomer, unassigned) [Compound 505]
15 | < 0.1 µM | < 5 µM | – | Cc1cc(-c2cc(Cl)ccc2OCCn2c(C)nc3c(c2=O)C[C@H](N2CCC[C@@H](OC(F)(F)F)C2)CC3)c2scc(C(=O)O)c2n1 (single isomer, unassigned) [Compound 471]
16 | < 0.1 µM | < 5 µM | – | Cc1nc2c(c(=O)n1CC#Cc1ccc(Cl)cc1-c1ccnc3c(C(=O)O)csc13)CC(N1CCC(OC(F)(F)F)CC1)CC2 (single isomer, unassigned) [Compound 534]
17 | < 0.1 µM | – | < 5 µM | Cc1cc(-c2cc(Cl)ccc2OCCn2c(C)nc3c(c2=O)CC(N2CCC(OC(F)(F)F)CC2)CC32CC2)c2scc(C(=O)O)c2n1 (single isomer, unassigned) [Compound 380, 7-(5-chloro-2-(2-(2′-methyl-4′-oxo-6′-(4-(trifluoromethoxy)piperidin-1-yl)-6′,7′-dihydro-4′H-spiro[cyclopropane-1,8′-quinazolin]-3′(5′H)-yl)ethoxy)phenyl)-5-methylthieno[3,2-b]pyridine-3-carboxylic acid]
18 | < 0.1 µM | < 5 µM | – | Cc1cc(-c2cc(Cl)ccc2OCCn2c(C)nc3c(c2=O)C[C@H](N2C[C@@H]4CC(F)(F)C[C@@H]4C2)CC32CC2)c2scc(C(=O)O)c2n1 (single isomer, unassigned) [Compound 618]

Row | IC50 (human eIF4E protein) | IC50 ([1]; Homo sapiens, COLO 205, 72 h) | IC50 [1] | Compound
19 | < 0.1 µM | < 5 µM | – | Cc1cc(-c2cc(Cl)ccc2OCCn2c(C)nc3c(c2=O)C[C@@H](N2CCO[C@H](CC(F)(F)F)C2)CC3)c2scc(C(=O)O)c2n1 (single isomer, unassigned) [Compound 526]
20 | 0.1 to 0.5 µM | 5 to 20 µM | – | COC1CCN(C2CCc3nc(C)n(CCOc4ccc(Cl)cc4-c4cc(C)nc5c(C(N)=O)csc45)c(=O)c3C2)CC1 (centres unmarked) [Compound 133]
21 | < 0.1 µM | < 5 µM | – | Cc1cc(-c2cc(Cl)ccc2OCCn2c(C)nc3c(c2=O)C[C@@H](N2CCC4(CCCO4)CC2)CC3)c2scc(C(=O)O)c2n1 (single isomer, unassigned) [Compound 421]
22 | < 0.1 µM | 5 to 20 µM | – | Cc1cc(-c2cc(Cl)ccc2OCCn2c(C)nc3c(c2=O)C[C@H](N2CCCC[C@H]2C(F)(F)F)CC32CC2)c2scc(C(=O)O)c2n1 (single isomer, unassigned) [Compound 633]
23 | < 0.1 µM | < 5 µM | – | Cc1cc(-c2cc(Cl)ccc2OCCn2c(C)nc3c(c2=O)C[C@H](N2CCC(c4ncco4)CC2)CC3)c2scc(C(=O)O)c2n1 (single isomer, unassigned) [Compound 460]
24 | < 0.1 µM | < 5 µM | – | CO[C@@H](C1CCN([C@H]2CCc3nc(C)n(CCOc4ccc(Cl)cc4-c4cc(C)nc5c(C(=O)O)csc45)c(=O)c3C2)CC1)C(F)(F)F (single isomer, unassigned) [Compound 562]
25 | < 0.1 µM | < 5 µM | – | Cc1cc(-c2cc(Cl)ccc2OCCn2c(C)nc3c(c2=O)C[C@H](N2CCC(COC(F)(F)F)CC2)CC32CC2)c2scc(C(=O)O)c2n1 (single isomer, unassigned) [Compound 560]
26 | < 0.1 µM | < 5 µM | – | Cc1cc(-c2cc(Cl)ccc2OCCn2c(C)nc3c(c2=O)C[C@@H](N2CCC(COC(F)(F)F)CC2)CC3)c2scc(C(=O)O)c2n1 (single isomer, unassigned) [Compound 407]
27 | < 0.1 µM | < 5 µM | – | COC1CCN(C2(C)CCc3nc(C)n(CCOc4ccc(Cl)cc4-c4cc(C)nc5c(C(=O)O)csc45)c(=O)c3C2)CC1 (centres unmarked) [Compound 114]
28 | 0.1 to 0.5 µM | > 20 µM | – | Cc1cc(-c2cc(Cl)ccc2OCCn2c(C)nc3c(c2=O)C[C@@H](N2CCCC[C@@H]2c2nccs2)CC3)c2scc(C(=O)O)c2n1 (single isomer, unassigned) [Compound 549]
29 | < 0.1 µM | < 5 µM | – | COC1CCN([C@@H]2Cc3c(nc(C)n(CCOc4ccc(Cl)cc4-c4cc(C)nc5c(C(=O)O)csc45)c3=O)C3(CC3)C2)CC1 (single isomer, unassigned) [Compound 372]
30 | < 0.1 µM | < 5 µM | – | Cc1cc(-c2cc(Cl)ccc2OCCn2c(C)nc3c(c2=O)C[C@@H](N2CCC4(CC2)CC4(F)F)CC32CC2)c2scc(C(=O)O)c2n1 (single isomer, unassigned) [Compound 591]
31 | < 0.1 µM | < 5 µM | – | Cc1cc(-c2cc(Cl)ccc2OCCn2c(C)nc3c(c2=O)C[C@@H](N2C[C@@H]4CC(F)(F)C[C@@H]4C2)CC32CC2)c2scc(C(=O)O)c2n1 (single isomer, unassigned) [Compound 619]
32 | < 0.1 µM | > 20 µM | – | Cc1cc(-c2cc(Cl)ccc2OCCn2c(C)nc3c(c2=O)CC(N2CC4(CCCNC4)C2)CC3)c2scc(C(=O)O)c2n1 (single isomer, unassigned) [Compound 509]
33 | < 0.1 µM | < 5 µM | – | Cc1cc(-c2cc(Cl)ccc2OCCn2c(C)nc3c(c2=O)C[C@@H](N2CCC(c4noc5ccc(F)cc45)CC2)CC3)c2scc(C(=O)O)c2n1 (single isomer, unassigned) [Compound 449]
34 | < 0.1 µM | < 5 µM | – | Cc1cc(-c2cc(Cl)ccc2OCCn2c(C)nc3c(c2=O)C[C@H](N2CCC[C@H](c4cnn(C)c4)C2)CC3)c2scc(C(=O)O)c2n1 (single isomer, unassigned) [Compound 485]
35 | 0.1 to 0.5 µM | 5 to 20 µM | – | CO[C@@H]1CCN([C@]2(C)CCc3nc(C)n(CCOc4ccc(Cl)cc4-c4cc(C)nc5c(C(=O)O)csc45)c(=O)c3C2)CC1(C)C (single isomer, unassigned) [Compound 558]
36 | < 0.1 µM | < 5 µM | – | Cc1cc(-c2cc(Cl)ccc2OCCn2c(C)nc3c(c2=O)CC(N2CCC(c4cccs4)CC2)CC3)c2scc(C(=O)O)c2n1 (centres unmarked) [Compound 130]

Row | Compound | IC50 (human eIF4E protein) | IC50 ([1]; Homo sapiens, COLO 205, 72 h) | IC50 [1]
37 | Cc1cc(-c2cc(Cl)ccc2OCCn2c(C)nc3c(c2=O)C[C@@H](N2[C@@H]4CC[C@H]2C[C@@H](OC(F)(F)F)C4)CC3)c2scc(C(=O)O)c2n1 (single isomer, unassigned) [Compound 396] | < 0.1 µM | < 5 µM | –
